# Experimental data published in patent US20190047966A1, “NOVEL COMPOUND AND PHARMACOLOGICALLY ACCEPTABLE SALT THEREOF” (MEIJI SEIKA PHARMA CO., LTD., priority 2016, published 2019).
# Structures can show the parent of a compound that is named as a salt.
# Legend:
# [1] = molecular target: T1, human histamine H1 receptor (Homo sapiens, UniProt P35367); assay: Evaluation of Human H1 Receptor Function (GeneBLAzer H1-NFAT-bla HEK 293T cells); type: cell-based; conditions: histamine 30 nM, read-out: Evaluation of H1 Receptor Function (IC50 value, antagonistic effect)
# Method: Test Example 3: Evaluation of Human H1 Receptor Function
# The antagonistic effect was evaluated by the method described below. GeneBLAzer® H1-NFAT-bla HEK 293T-cells (Invitrogen Corporation, recombinant cells expressing the human histamine H1 receptor) were incubated at 37° C. for 30 minutes in the presence of the test compounds dissolved in DMSO in a high glucose Dulbecco's Modified Eagle Medium (GlutaMAX, containing 10% fetal bovine serum, 100 μM nonessential amino acids, 25 mM HEPES, 100 U/mL penicillin, and 100 μg/mL streptomycin), and histamine was added such that the final concentration became 30 nM, followed by further incubation for 4.5 hours. Then, a mixture of LiveBLAzer™ FRET-B/G Loading Kit (Invitrogen Corporation) and Solution D (Invitrogen Corporation) was added, followed by leaving to stand at room temperature for 2 hours under shaded conditions. Thereafter, the fluorescence intensity was measured under two conditions of 400 nm/460 nm and 400 nm/535 nm (excitation light/fluorescence) by using a multilabel counter (EnVision: PerkinElmer Inc.). The 50% inhibitory concentration (IC50 value) was calculated in accordance with (measured value−blank measured value at 400 nm/460 nm)/(measured value−blank measured value at 400 nm/535 nm) of each test sample.
# [2] = molecular target: T1, human histamine H1 receptor; assay: Evaluation of Human H1 Receptor Affinity ([3H]pyrilamine binding); set-up: purchased PerkinElmer Inc; host or cells: CHO-K1; conditions: inhibition constant Ki, CHO-K1 membrane preparation
# Procedure, shortened: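 Ki values are Cheng-Prusoff conversions of IC50 (Kd 1.1 nM) from radioligand displacement of 1.2 nM [3H]pyrilamine, with 1.0 μM pyrilamine defining nonspecific binding.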
# [3] = molecular target: T2, human histamine H4 receptor (Homo sapiens, UniProt Q9H3N8); assay: Evaluation of H4 Receptor Function ([35S]GTPγS binding); type: biochemical; conditions: [35S]GTPγS binding, CHO-K1 membrane, 0.1 μM histamine; read-out: Evaluation of H4 Receptor Function (IC50 value, antagonistic effect)
# T2 construct: purchased PerkinElmer Inc; host or cells: CHO-K1
# Method: The antagonistic effect was evaluated by the method described below. Membrane preparation from recombinant CHO-K1 cell expressing the human histamine H4 receptor (PerkinElmer Inc.), 10 μM GDP, 0.1 μM histamine, and the compounds dissolved in DMSO were reacted at 30° C. for 20 minutes in a buffering solution containing 20 mM HEPES, pH 7.4, 100 mM NaCl, 10 mM MgCl2, 1 mM DTT, and 1 mM EDTA on an assay plate. Thereafter, SPA beads (Amersham plc) were added, followed by incubation for 60 minutes, and further 0.3 nM [^35S]GTPγS (PerkinElmer Inc.) was added, followed by incubation for 30 minutes.
# [4] = molecular target: T2, human histamine H4 receptor; assay: Evaluation of Human H4 Receptor Affinity ([3H]histamine binding); conditions: inhibition constant Ki, CHO-K1 membrane preparation, read-out: Evaluation of H4 Receptor Affinity
# Procedure, shortened: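 Radioligand displacement: compound competes with 8.2 nM [3H]histamine at recombinant human H4 receptor in CHO-K1 membranes (Tris-HCl 50 mM pH 7.4, EDTA 1.25 mM; 25 °C, 90 min), with filter-bound radioactivity counted. IC50 was converted to Ki via Cheng-Prusoff (Kd 5.7 nM); 1.0 μM histamine set nonspecific binding.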
# T2 sequence (Q9H3N8 whole entry): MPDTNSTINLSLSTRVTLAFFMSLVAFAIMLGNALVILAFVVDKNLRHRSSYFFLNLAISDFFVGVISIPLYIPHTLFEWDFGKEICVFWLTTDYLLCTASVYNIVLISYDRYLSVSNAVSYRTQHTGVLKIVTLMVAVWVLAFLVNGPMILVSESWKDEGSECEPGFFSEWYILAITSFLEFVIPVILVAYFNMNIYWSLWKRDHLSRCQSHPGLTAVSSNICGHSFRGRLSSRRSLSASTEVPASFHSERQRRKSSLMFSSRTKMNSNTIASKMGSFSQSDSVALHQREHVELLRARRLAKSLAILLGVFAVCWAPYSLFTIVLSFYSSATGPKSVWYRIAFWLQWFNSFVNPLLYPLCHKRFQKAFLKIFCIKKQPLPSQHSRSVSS
# T1 sequence (P35367 whole entry): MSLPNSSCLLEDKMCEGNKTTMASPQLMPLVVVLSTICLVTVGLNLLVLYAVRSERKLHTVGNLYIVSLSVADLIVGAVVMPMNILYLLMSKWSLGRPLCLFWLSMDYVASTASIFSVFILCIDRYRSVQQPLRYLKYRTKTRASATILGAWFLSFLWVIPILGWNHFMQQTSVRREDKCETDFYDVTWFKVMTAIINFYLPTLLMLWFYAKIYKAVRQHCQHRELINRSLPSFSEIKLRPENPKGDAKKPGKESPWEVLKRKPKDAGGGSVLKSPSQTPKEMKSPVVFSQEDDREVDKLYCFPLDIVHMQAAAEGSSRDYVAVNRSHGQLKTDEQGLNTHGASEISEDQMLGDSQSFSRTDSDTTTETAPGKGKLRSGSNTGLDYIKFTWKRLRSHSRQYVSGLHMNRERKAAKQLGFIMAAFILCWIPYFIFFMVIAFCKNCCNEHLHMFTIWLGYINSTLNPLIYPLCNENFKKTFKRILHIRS
SMILES,IC50 [1] [nM],Ki [2] [nM],IC50 [3] [nM],Ki [4] [nM]
"Nc1nc2c(c(N3CCN(CCO[C@H]4C[C@@H](C(=O)O)C4)CC3)n1)CCc1cc(OCc3ccc(Cl)cc3)ccc1-2 [Example 14, cis-3-(2-(4-(2-amino-8-((4-chlorobenzyl)oxy)-5,6-dihydrobenzo[h]quinazolin-4-yl)piperazin-1-yl)ethoxy)cyclobutane-1-carboxylic acid]",< 200,< 100,200 to 2000,< 100
"Nc1nc2c(c(N3CCN(CCOCCOCc4nn[nH]n4)CC3)n1)CCc1cc(OCc3ccc(Cl)cc3)ccc1-2 [Example 21, 4-(4-(2-(2-((tetrazol-5-yl)methoxy)ethoxy)ethyl)piperazin-1-yl)-8-((4-chlorobenzyl)oxy)-5,6-dihydrobenzo[h]quinazolin-2-amine]",< 200,< 100,200 to 2000,< 100
"Nc1nc2c(c(N3CCN(CCOCc4nn[nH]n4)CC3)n1)CCc1cc(OCc3ccc(Cl)cc3)ccc1-2 [Example 22, 4-(4-(2-((tetrazol-5-yl)methoxy)ethyl)piperazin-1-yl)-8-((4-chlorobenzyl)oxy)-5,6-dihydrobenzo[h]quinazolin-2-amine]",< 200,< 100,200 to 2000,< 100
"Nc1nc2c(c(N3CCN(CCOC[C@H]4CC[C@H](C(=O)O)CC4)CC3)n1)CCc1cc(OCc3ccc(OC(F)(F)F)cc3)ccc1-2 [Example 29, trans-4-((2-(4-(2-amino-8-((4-(trifluoromethoxy)benzyl)oxy)-5,6-dihydrobenzo[h]quinazolin-4-yl)piperazin-1-yl)ethoxy)methyl)cyclohexane-1-carboxylic acid]",< 200,< 100,< 200,< 100
"C[C@]1(C(=O)O)C[C@H](OCCN2CCN(c3nc(N)nc4c3CCc3cc(OCc5ccc(OC(F)(F)F)cc5)ccc3-4)CC2)C1 [Example 32, trans-3-(2-(4-(2-amino-8-((4-(trifluoromethoxy)benzyl)oxy)-5,6-dihydrobenzo[h]quinazolin-4-yl)piperazin-1-yl)ethoxy)-1-methylcyclobutane-1-carboxylic acid]",< 200,< 100,< 200,< 100
"Nc1nc2c(c(N3CCN(CCO[C@H]4C[C@@H](CC(=O)O)C4)CC3)n1)CCc1cc(OCc3ccc(OC(F)(F)F)cc3)ccc1-2 [Example 36, cis-2-(3-(2-(4-(2-amino-8-((4-(trifluoromethoxy)benzyl)oxy)-5,6-dihydrobenzo[h]quinazolin-4-yl)piperazin-1-yl)ethoxy)cyclobutyl)acetic acid]",< 200,< 100,< 200,< 100
"Nc1nc2c(c(N3CCN(CCO[C@@H]4CO[C@@H](C(=O)O)C4)CC3)n1)CCc1cc(OCc3ccc(OC(F)(F)F)cc3)ccc1-2 [Example 37, (2R,4S)-4-(2-(4-(2-amino-8-((4-(trifluoromethoxy)benzyl)oxy)-5,6-dihydrobenzo[h]quinazolin-4-yl)piperazin-1-yl)ethoxy)tetrahydrofuran-2-carboxylic acid]",< 200,< 100,< 200,< 100
"NC(=O)N1CC(COCCN2CCN(c3nc(N)nc4c3CCc3cc(OCc5ccc(OC(F)(F)F)cc5)ccc3-4)CC2)C1 [Example 39, 3-((2-(4-(2-amino-8-((4-(trifluoromethoxy)benzyl)oxy)-5,6-dihydrobenzo[h]quinazolin-4-yl)piperazin-1-yl)ethoxy)methyl)azetidine-1-carboxamide]",< 200,< 100,< 200,< 100
"CN1CCN(c2nc(N)nc3c2CCc2cc(NS(=O)(=O)c4ccc(Cl)cc4)ccc2-3)CC1 [Example 42, N-(2-amino-4-(4-methylpiperazin-1-yl)-5,6-dihydrobenzo[h]quinazolin-8-yl)-4-chlorobenzenesulfonamide]",< 200,< 100,200 to 2000,< 100
"CN1CCN(c2nc(N)nc3c2CCc2cc(NS(=O)(=O)c4ccc(OC(F)(F)F)cc4)ccc2-3)CC1 [Example 54, N-(2-amino-4-(4-methylpiperazin-1-yl)-5,6-dihydrobenzo[h]quinazolin-8-yl)-4-(trifluoromethoxy)benzenesulfonamide]",< 200,< 100,200 to 2000,< 100
"CN(C)[C@H]1CCN(c2nc(N)nc3c2CCc2cc(OCc4ccccc4)ccc2-3)C1 [Example 102, (S)-8-(benzyloxy)-4-(3-(dimethylamino)pyrrolidin-1-yl)-5,6-dihydrobenzo[h]quinazolin-2-amine]",200 to 2000,100 to 500,< 200,< 100
"CS(=O)(=O)NCCOCCOCCN1CCN(c2nc(N)nc3c2CCc2cc(OCc4ccc(Cl)cc4)ccc2-3)CC1 [Example 111, N-(2-(2-(2-(4-(2-amino-8-((4-chlorobenzyl)oxy)-5,6-dihydrobenzo[h]quinazolin-4-yl)piperazin-1-yl)ethoxy)ethoxy)ethyl)methanesulfonamide dihydrochoride]",< 200,< 100,< 200,< 100
"CC(C)(OCCOCCN1CCN(c2nc(N)nc3c2CCc2cc(OCc4ccc(Cl)cc4)ccc2-3)CC1)C(=O)O [Example 122, 2-(2-(2-(4-(2-amino-8-((4-chlorobenzyl)oxy)-5,6-dihydrobenzo[h]quinazolin-4-yl)piperazin-1-yl)ethoxy)ethoxy)-2-methylpropanoic acid]",< 200,< 100,200 to 2000,100 to 500
"Nc1nc2c(c(N3CCN(CCOCCOCC(=O)O)CC3)n1)CCc1cc(OCc3ccc(OC(F)(F)F)cc3)ccc1-2 [Example 143, 2-(2-(2-(4-(2-amino-8-((4-(trifluoromethoxy)benzyl)oxy)-5,6-dihydrobenzo[h]quinazolin-4-yl)piperazin-1-yl)ethoxy)ethoxy)acetic acid formate]",< 200,< 100,< 200,< 100
"Nc1nc2c(c(N3CCN(CCOCC4CC5(C4)CC(C(=O)O)C5)CC3)n1)CCc1cc(OCc3ccc(Cl)cc3)ccc1-2 (stereo not drawn) [Example 152, 6-((2-(4-(2-amino-8-((4-chlorobenzyl)oxy)-5,6-dihydrobenzo[h]quinazolin-4-yl)piperazin-1-yl)ethoxy)methyl)spiro[3.3]heptane-2-carboxylic acid hydrochloride]",< 200,< 100,200 to 2000,< 100
"Nc1nc2c(c(N3CCN(CCOCCSCC(=O)O)CC3)n1)CCc1cc(OCc3ccc(OC(F)(F)F)cc3)ccc1-2 [Example 178, 2-((2-(2-(4-(2-amino-8-((4-(trifluoromethoxy)benzyl)oxy)-5,6-dihydrobenzo[h]quinazolin-4-yl)piperazin-1-yl)ethoxy)ethyl)thio)acetic acid]",< 200,< 100,< 200,< 100
"[2H]C([2H])(C(=O)O)[C@H]1C[C@@H](OCCN2CCN(c3nc(N)nc4c3CCc3cc(OCc5ccc(OC(F)(F)F)cc5)ccc3-4)CC2)C1 [Example 184, cis-2-(3-(2-(4-(2-amino-8-((4-(trifluoromethoxy)benzyl)oxy)-5,6-dihydrobenzo[h]quinazolin-4-yl)piperazin-1-yl)ethoxy)cyclobutyl)acetic-c-2,2-d2 acid]",< 200,< 100,< 200,< 100
"CN1CCN(c2nc(N)nc3c2CCc2cc(OCc4ccc(F)cc4)ccc2-3)CC1 [Example 196, 8-((4-fluorobenzyl)oxy)-4-(4-methylpiperazin-1-yl)-5,6-dihydrobenzo[h]quinazolin-2-amine]",< 200,< 100,< 200,< 100
